Values after ≈ are worked out from the molar mass of the structure shown. Like-named read-outs stand apart in the source and are kept apart here.
Assays:
53 CRE and CPE strains = assay: MICrange, MIC50, MIC80, MIC90 for 53 bacterial isolates (Example 5, Table 5); format: cell-based; details: 53 bacterial isolates
Enterobacterales = assay: MIC, broth microdilution, CDC/FDA Antibiotic Resistance Isolate Bank (Example 7, Tables 8, 11, 12); format: cell-based; details: read-out: MIC

Compound: C[C@H]1COc2c(N3CCN(C)CC3)c(F)cc3c(=O)c(C(=O)O)cn1c23 [Levofloxacin, levofloxacin]
- MIC50 (53 CRE and CPE strains; read-out: MIC50): 16 µg/mL (≈ 44.3 µM)
- MIC80 (53 CRE and CPE strains; read-out: MIC80): 64 µg/mL (≈ 177 µM)
- MIC90 (53 CRE and CPE strains; read-out: MIC90): 64 µg/mL (≈ 177 µM)
- MIC (Enterobacterales; Citrobacter freundii, KUB No. 5654, AR Bank # 157): > 64 µg/mL
- MIC (Enterobacterales; Enterobacter cloacae, Enterobacter cloacae KUB No. 5792, AR Bank #448): > 64 µg/mL
- MIC (Enterobacterales; Enterobacter cloacae, Enterobacter cloacae KUB No. 5807, AR Bank #501): 1 µg/mL (≈ 2.77 µM)
- MIC (Enterobacterales; Enterobacter cloacae, Enterobacter cloacae KUB No. 5808, AR Bank #502): 8 µg/mL (≈ 22.1 µM)
- MIC (Enterobacterales; Enterobacter cloacae, Enterobacter cloacae complex, KUB No. 5661, AR Bank # 164): 0.12 µg/mL (≈ 0.332 µM)
- MIC (Enterobacterales; Enterobacter cloacae, Enterobacter cloacae group, KUB No. 5629, AR Bank # 132): 0.06 µg/mL (≈ 0.166 µM)
- MIC (Enterobacterales; Enterobacter cloacae, KUB No. 5529, AR Bank# 32): 1 µg/mL (≈ 2.77 µM)
- MIC (Enterobacterales; Enterobacter cloacae, KUB No. 5535, AR Bank# 38): 64 µg/mL (≈ 177 µM)
- MIC (Enterobacterales; Enterobacter cloacae, KUB No. 5547, AR Bank# 50): 8 µg/mL (≈ 22.1 µM)
- MIC (Enterobacterales; Enterobacter cloacae, KUB No. 5550, AR Bank# 53): 32 µg/mL (≈ 88.6 µM)
- MIC (Enterobacterales; Enterobacter cloacae, KUB No. 5557, AR Bank# 60): 0.06 µg/mL (≈ 0.166 µM)
- MIC (Enterobacterales; Enterobacter cloacae, KUB No. 5660, AR Bank # 163): 32 µg/mL (≈ 88.6 µM)
- MIC (Enterobacterales; Enterobacter cloacae, KUB No. 5761, AR Bank # 365): 4 µg/mL (≈ 11.1 µM)
- MIC (Enterobacterales; Enterobacter cloacae, KUB No. 5762, AR Bank # 366): 0.5 µg/mL (≈ 1.38 µM)
- MIC (Enterobacterales; Enterobacter cloacae, KUB No. 5763, AR Bank # 367): 1 µg/mL (≈ 2.77 µM)
- MIC (Enterobacterales; Enterobacter cloacae, KUB No. 5778, AR Bank # 432): 0.12 µg/mL (≈ 0.332 µM)
- MIC (Enterobacterales; Enterobacter cloaccae, KUB No. 5651, AR Bank # 154): 1 µg/mL (≈ 2.77 µM)
- MIC (Enterobacterales; Enterobacter clooreae, KUB No. 5633, AR Bank # 136): 16 µg/mL (≈ 44.3 µM)
- MIC (Enterobacterales; Escherichia coli, Escherichia coli KUB No. 5783, AR Bank #437): 32 µg/mL (≈ 88.6 µM)
- MIC (Enterobacterales; Escherichia coli, Escherichia coli KUB No. 5794, AR Bank #450): 0.12 µg/mL (≈ 0.332 µM)
- MIC (Enterobacterales; Escherichia coli, Escherichia coli KUB No. 5795, AR Bank #451): 32 µg/mL (≈ 88.6 µM)
- MIC (Enterobacterales; Escherichia coli, Escherichia coli KUB No. 5796, AR Bank #452): 64 µg/mL (≈ 177 µM)
- MIC (Enterobacterales; Escherichia coli, Escherichia coli KUB No. 5803, AR Bank #861): 16 µg/mL (≈ 44.3 µM)
- MIC (Enterobacterales; Escherichia coli, KUB No. 5601, AR Bank # 104): 16 µg/mL (≈ 44.3 µM)
- MIC (Enterobacterales; Escherichia coli, KUB No. 5611, AR Bank # 114): 32 µg/mL (≈ 88.6 µM)
- MIC (Enterobacterales; Escherichia coli, KUB No. 5615, AR Bank # 118): 32 µg/mL (≈ 88.6 µM)
- MIC (Enterobacterales; Escherichia coli, KUB No. 5616, AR Bank # 119): 32 µg/mL (≈ 88.6 µM)
- MIC (Enterobacterales; Escherichia coli, KUB No. 5625, AR Bank # 128): 32 µg/mL (≈ 88.6 µM)
- MIC (Enterobacterales; Escherichia coli, KUB No. 5634, AR Bank # 137): 64 µg/mL (≈ 177 µM)
- MIC (Enterobacterales; Escherichia coli, KUB No. 5646, AR Bank # 149): 8 µg/mL (≈ 22.1 µM)
- MIC (Enterobacterales; Escherichia coli, KUB No. 5647, AR Bank # 150): 32 µg/mL (≈ 88.6 µM)
- MIC (Enterobacterales; Escherichia coli, KUB No. 5648, AR Bank # 151): 32 µg/mL (≈ 88.6 µM)
- MIC (Enterobacterales; Escherichia coli, KUB No. 5659, AR Bank # 162): 32 µg/mL (≈ 88.6 µM)
- MIC (Enterobacterales; Escherichia coli, KUB No. 5764, AR Bank # 368): 0.06 µg/mL (≈ 0.166 µM)
- MIC (Enterobacterales; Escherichia coli, KUB No. 5765, AR Bank # 369): 0.06 µg/mL (≈ 0.166 µM)
- MIC (Enterobacterales; Escherichia coli, KUB No. 5766, AR Bank # 370): 16 µg/mL (≈ 44.3 µM)
- MIC (Enterobacterales; Escherichia coli, KUB No. 5767, AR Bank # 371): 16 µg/mL (≈ 44.3 µM)
- MIC (Enterobacterales; Escherichia coli, KUB No. 5768, AR Bank # 372): 16 µg/mL (≈ 44.3 µM)
- MIC (Enterobacterales; Escherichia coli, KUB No. 5769, AR Bank # 373): 32 µg/mL (≈ 88.6 µM)
- MIC (Enterobacterales; Escherichia coli, KUB No. 5770, AR Bank # 374): 32 µg/mL (≈ 88.6 µM)
- MIC (Enterobacterales; Escherichia coli, KUB No. 5774, AR Bank # 378): 8 µg/mL (≈ 22.1 µM)
- MIC (Enterobacterales; Escherichia coli, KUB No. 5779, AR Bank # 433): 32 µg/mL (≈ 88.6 µM)
- MIC (Enterobacterales; Escherichia coli, KUB No. 5780, AR Bank # 434): 16 µg/mL (≈ 44.3 µM)
- MIC (Enterobacterales; Escherichia coli, KUB No. 5781, AR Bank # 435): 32 µg/mL (≈ 88.6 µM)
- MIC (Enterobacterales; Escherichia, KUB No. 57, AR Bank # 436 (row cut off)): 32 µg/mL (≈ 88.6 µM)
- MIC (Enterobacterales; Klebsiella aerogenes, Enterobacter aerogenes, KUB No. 5658, AR Bank # 161): 0.12 µg/mL (≈ 0.332 µM)
- MIC (Enterobacterales; Klebsiella aerogenes, Enterobacter aerogenes, KUB No. 5777, AR Bank # 431): 1 µg/mL (≈ 2.77 µM)
- MIC (Enterobacterales; Klebsiella oxytoca, KUB No. 5644, AR Bank # 147): 0.06 µg/mL (≈ 0.166 µM)
- MIC (Enterobacterales; Klebsiella oxytoca, KUB No. 5771, AR Bank # 375): 0.12 µg/mL (≈ 0.332 µM)
- MIC (Enterobacterales; Klebsiella oxytoca, KUB No. 5776, AR Bank # 380): 0.5 µg/mL (≈ 1.38 µM)
- MIC (Enterobacterales; Klebsiella ozaenae, KUB No. 5548, AR Bank# 51): 16 µg/mL (≈ 44.3 µM)
- MIC (Enterobacterales; Klebsiella pnemnonine, KUB No. 5758, AR Bank # 362): 64 µg/mL (≈ 177 µM)
- MIC (Enterobacterales; Klebsiella pneumoniae, KUB No. 55, AR Bank# 47): 64 µg/mL (≈ 177 µM)
- MIC (Enterobacterales; Klebsiella pneumoniae, KUB No. 5531, AR Bank# 34): 0.5 µg/mL (≈ 1.38 µM)
- MIC (Enterobacterales; Klebsiella pneumoniae, KUB No. 5536, AR Bank# 39): 8 µg/mL (≈ 22.1 µM)
- MIC (Enterobacterales; Klebsiella pneumoniae, KUB No. 5537, AR Bank# 40): 32 µg/mL (≈ 88.6 µM)
- MIC (Enterobacterales; Klebsiella pneumoniae, KUB No. 5538, AR Bank# 41): 8 µg/mL (≈ 22.1 µM)
- MIC (Enterobacterales; Klebsiella pneumoniae, KUB No. 5540, AR Bank# 43): 2 µg/mL (≈ 5.53 µM)
- MIC (Enterobacterales; Klebsiella pneumoniae, KUB No. 5541, AR Bank# 44): 8 µg/mL (≈ 22.1 µM)
- MIC (Enterobacterales; Klebsiella pneumoniae, KUB No. 5543, AR Bank# 46): 32 µg/mL (≈ 88.6 µM)

Reference: patent EP4635500A1, “THERAPEUTIC AGENT FOR BACTERIAL INFECTION” (Sumitomo Pharma Co., Ltd., priority 2022, dated 2024)
